Reference: patent US10688099B2, “Methods for modulating the amount of RNA transcripts” (PTC Therapeutics, Inc., priority 2013, dated 2020)

System: RNA isoforms in PNN 1-46 SMA type I patient-derived fibroblasts
Test: RNA Abundance Modulation (RNA isoform abundance, iFPM, HiSeq RNA sequencing)
Assay type: cell-based, human
Settings: 3 μM
Method: Cells from a cell line of interest are cultured in conditions sufficient to yield the number of cells capable of generating enough RNA for subsequent sequencing steps. Cells from the tested cell line are contacted with a compound described herein.
To culture said cells, they are seeded, at appropriate concentrations in a volume of media in a cell culture container and incubated for 4, 5, 6, 7, 8, 9, 10, or more hours. A concentrated solution of compound in a vehicle (e.g., DMSO) is then added in sufficient volume to result in the intended final concentration of the compound, for example 100 nM, 500 nM, 1 μM, 5 μM, 10 μM, 15 μM, 20 μM, or more. The cells may also be treated with vehicle alone, as a control. A number of replicates of each concentration or control may be made (e.g., 2 replicates). The cells are then incubated at a constant temperature appropriate for cell culture of the particular cell line (e.g., 37° C.) for 6, 12, 18, 24, 48, or more hours. After incubation, the growth medium is removed and the cells are washed with the appropriate buffer (e.g., PBS). Cells are then removed from adherence to the cell culture container by treatment with a solution containing trypsin, and the trypsin subsequently quenched with the appropriate volume of buffer (e.g., DMEM-FBS). The cells are then pelleted with gentle centrifugation (e.g., ≤90×g centrifugal force) and resuspended in a buffer to lyse the cells for extraction of RNA. The cell lysates may then be frozen (e.g., at −80° C.) or, alternately, may immediately be used in a procedure to purify the RNA (e.g. by use of the RNEASY PLUS® minikit). The RNA from cell lysates is eluted in the appropriate volume of buffer (e.g., RNEASE-FREE H2O®). The resulting purified RNA may then be sequenced (e.g., using RNASeq) or analyzed using a human exon array (e.g., by GENECHIP® human exon array) to determine changes in the RNA levels in those cells treated with compound compared to those cells treated only with DMSO. The purified RNA may also be quantified by other methods known in the art.
Using the RNA data obtained from sequencing, exon array, or other methods, a statistical analysis can reveal changes in the RNA levels of compound-treated compared with control. For example, t-test p-values may be calculated for the data obtained through sequencing and exon array methods in order to compare compound-treated cells to those treated with the DMSO control. […] Analysis of the sequencing and exon array data may then also yield predictions about the cause of the aberrant amount of an RNA transcript in the cells (e.g., perturbation of RNA splicing, RNA transcription, or RNA stability). These predictions may be further confirmed by methods known in the art. For example, RT-PCR and RT-qPCR may be used to confirm the change in amount of RNA transcripts for one or more particular transcripts of interest.
Following the methods described above in Example 1, PNN 1-46 SMA type I patient-derived fibroblasts were treated with 300 nM or 3 μM Compounds 774 and 808 in 0.5% DMSO.
700,000 cells were seeded in 10 mL of medium (DMEM plus 10% FBS) in a T-75 flask. Cells were allowed to attach for at least 4 hrs, after which 50 μL of a 200× compound solution (100% DMSO) was added to each well, and the plate was incubated at 37° C. for 24 hrs.
At the end of the incubation period, the supernatant was removed and the cells where washed with PBS. TrypLE (Invitrogen) express solution was added (e.g. 1.5 mL per one T75 flask). The flasks were incubated for 3 to 5 min at 37° C. The trypsin was then quenched, e.g., by adding 10 mL DMEM-FBS.
Next, the cells were pelleted using gentle centrifugation without exceeding 90×g centrifugal force. The supernatant was removed and the cell pellet was re-suspended in 600 μL RLT buffer (the RLT buffer was supplemented with beta-mercaptoethanol according to the RNeasy protocol manual) by pipetting up and down until the pellet was completely dissolved […]

CCc1nc(C)cn2nc(-c3cc(=O)n4cc(C5CCN(C)CC5)cc(C)c4n3)cc12 [Compound 774]
amp FC (x + 1) (TOMM5 CR627326): 2.36 | ave Cpd (TOMM5 CR627326): 4 iFPM | FC (x + 1) (TOMM5 NM_001001790): 0.3953 | L2FC (x + 1) (TOMM5 NM_001001790): −1.339 | L2abs (Cpd-DMSO) (TOMM5 NM_001001790): 10.21 | abs (Cpd-DMSO) (TOMM5 NM_001001790): 1185 iFPM | amp FC (x + 1) (TOMM5 NM_001001790): 2.53 | ave Cpd (TOMM5 NM_001001790): 774 iFPM | FC (x + 1) (TOMM5 NM_001134484): 0.2630 | L2FC (x + 1) (TOMM5 NM_001134484): −1.927 | L2abs (Cpd-DMSO) (TOMM5 NM_001134484): 3.41 | abs (Cpd-DMSO) (TOMM5 NM_001134484): 11 iFPM | amp FC (x + 1) (TOMM5 NM_001134484): 3.80 | ave Cpd (TOMM5 NM_001134484): 3 iFPM | FC (x + 1) (TOMM5 NM_001134485): 0.4705 | L2FC (x + 1) (TOMM5 NM_001134485): −1.088 | L2abs (Cpd-DMSO) (TOMM5 NM_001134485): 4.88 | abs (Cpd-DMSO) (TOMM5 NM_001134485): 29 iFPM | amp FC (x + 1) (TOMM5 NM_001134485): 2.13 | ave Cpd (TOMM5 NM_001134485): 25 iFPM | FC (x + 1) (TRAF3 NM_003300): 0.1622 | L2FC (x + 1) (TRAF3 NM_003300): −2.624 | L2abs (Cpd-DMSO) (TRAF3 NM_003300): 8.22 | abs (Cpd-DMSO) (TRAF3 NM_003300): 298 iFPM | amp FC (x + 1) (TRAF3 NM_003300): 6.17 | ave Cpd (TRAF3 NM_003300): 57 iFPM | FC (x + 1) (TRAF3 NM_145725): 0.7367 | L2FC (x + 1) (TRAF3 NM_145725): −0.441 | L2abs (Cpd-DMSO) (TRAF3 NM_145725): 8.08 | abs (Cpd-DMSO) (TRAF3 NM_145725): 271 iFPM | amp FC (x + 1) (TRAF3 NM_145725): 1.36 | ave Cpd (TRAF3 NM_145725): 757 iFPM | FC (x + 1) (TRAF3 NM_145726): 1.0000 | L2FC (x + 1) (TRAF3 NM_145726): 0.000 | L2abs (Cpd-DMSO) (TRAF3 NM_145726): 0 | abs (Cpd-DMSO) (TRAF3 NM_145726): 0 iFPM | amp FC (x + 1) (TRAF3 NM_145726): 1.00 | ave Cpd (TRAF3 NM_145726): 0 iFPM | FC (x + 1) (TRAF3 NM_001199427): 1.2405 | L2FC (x + 1) (TRAF3 NM_001199427): 0.311 | L2abs (Cpd-DMSO) (TRAF3 NM_001199427): 2.15 | abs (Cpd-DMSO) (TRAF3 NM_001199427): 4 iFPM | amp FC (x + 1) (TRAF3 NM_001199427): 1.24 | ave Cpd (TRAF3 NM_001199427): 22 iFPM | FC (x + 1) (TRAK1 AK295848): 1.1521 | L2FC (x + 1) (TRAK1 AK295848): 0.204 | L2abs (Cpd-DMSO) (TRAK1 AK295848): 6.64 | abs (Cpd-DMSO) (TRAK1 AK295848): 100 iFPM | amp FC (x + 1) (TRAK1 AK295848): 1.15 | ave Cpd (TRAK1 AK295848): 755 iFPM | FC (x + 1) (TRAK1 NM_014965): 0.0190 | L2FC (x + 1) (TRAK1 NM_014965): −5.718 | L2abs (Cpd-DMSO) (TRAK1 NM_014965): 5.69 | abs (Cpd-DMSO) (TRAK1 NM_014965): 52 iFPM | amp FC (x + 1) (TRAK1 NM_014965): 52.63 | ave Cpd (TRAK1 NM_014965): 0 iFPM | FC (x + 1) (TRAK1 NM_001042646): 0.6949 | L2FC (x + 1) (TRAK1 NM_001042646): −0.525 | L2abs (Cpd-DMSO) (TRAK1 NM_001042646): 7.09 | abs (Cpd-DMSO) (TRAK1 NM_001042646): 136 iFPM | amp FC (x + 1) (TRAK1 NM_001042646): 1.44 | ave Cpd (TRAK1 NM_001042646): 309 iFPM | FC (x + 1) (TRAK1 NM_001265608): 0.8894 | L2FC (x + 1) (TRAK1 NM_001265608): −0.169 | L2abs (Cpd-DMSO) (TRAK1 NM_001265608): 6.46 | abs (Cpd-DMSO) (TRAK1 NM_001265608): 88 iFPM | amp FC (x + 1) (TRAK1 NM_001265608): 1.12 | ave Cpd (TRAK1 NM_001265608): 705 iFPM | FC (x + 1) (TRAK1 NM_001265610): 0.6862 | L2FC (x + 1) (TRAK1 NM_001265610): −0.543 | L2abs (Cpd-DMSO) (TRAK1 NM_001265610): 3.13 | abs (Cpd-DMSO) (TRAK1 NM_001265610): 9 iFPM | amp FC (x + 1) (TRAK1 NM_001265610): 1.46 | ave Cpd (TRAK1 NM_001265610): 18 iFPM | FC (x + 1) (TRAPPC12 AK094181): 1.2209
